Where “and” joins values, the source holds several entries; their conditions need not be identical. Equal values may be shown once.
Legend:
[1] = Open label two way randomized crossover pharmacokinetic / absolute bioavailability study, SL ketamine wafer 25 mg vs 10 mg i.v. infusion; details: for clearance: CL, clearance following i.v. administration; for bioavailability: other: sublingual, F; for half-life: median (min-max in text) of eight healthy volunteers; for extrapolated portion of the AUC(0,∞): min-max
Description: The study was of open label two way randomized, crossover design in eight healthy male volunteers who all gave written informed consent. Each participant received either a single 10 mg i.v. dose as a constant rate 30 min infusion or a 25 mg SL dose of ketamine in two treatment periods with a 7 day washout. Both the SL and i.v. doses, and the duration of the i.v. infusion were chosen to ensure adequate characterization of the plasma concentration-time profiles and good quality estimates of pharmacokinetic (PK) variables for both routes of administration. […] The sequence of the two formulations was according to a computer-generated randomization code.
The SL wafer formulation was a freeze dried solid dispersion of racemic ketamine hydrochloride in a porous matrix using lactose as a filling agent. Prior to administration of the wafer the sublingual space was rinsed with 3 ml of water after which the wafer was placed sublingually by a member of the study staff. The participants were instructed to avoid chewing or swallowing of the wafer within 5 min of its placement. For i.v. administration, commercially available ketamine (Ketalar®) was diluted to 30 ml in saline and administered over 30 min using a volumetrically controlled syringe driver. The infusion line was primed prior to start of the infusion.
Pharmacokinetic blood sampling and clinical assessment of local tolerability and safety were carried out for 24 h following both dosing occasions.
Key inclusion criteria were healthy adult males aged 18-65 years with a BMI 19-30 kg m^−2 in good general health including mental health as assessed by the Symptom Checklist-90-R (SCL-90-R®), a screening instrument which evaluates a broad range of psychological problems and symptoms of psychopathology. Pharmacokinetic blood samples (5 ml), were taken following both i.v. and SL administration at predose 5, 10, 15, 30, 35 and 45 min, and at 1.0, 1.5, 2.0, 2.5, 3.0, 4.0, 6.0, 8.0,12 and 24 h post-dose.
Whole blood was drawn into prechilled lithium heparin tubes and remained on ice post-sample collection until centrifugation. Samples were centrifuged at 1800 g for 10 min in a refrigerated centrifuge at 4° C. Plasma was decanted and frozen at-80° C.
Safety laboratory testing (biochemistry, haematology and urinalysis) was performed predose and at hour 24 post-dose administration in each period. Quantification of the plasma concentrations of racemic ketamine was performed using a validated HPLC method with u.v. detection, a lower limit of quantification (LLOQ) of 2 ng ml^−1 and <20% bias and imprecision.
Standard non-compartmental methods using the PK Solver plug-in for Microsoft
Excel were used to derive pharmacokinetic variables, except for Cmax, Tmax and Tlast, which were taken as observations from the plasma concentration-time profile of each participant. Actual times were used when reporting Tmax. The terminal rate constant (λz) was estimated by log-linear regression, of the slope of the natural log plasma concentration vs. time curve where λz=−1×slope. The linear regression in the terminal phase used the last three to six data points. The terminal t1/2 was calculated as t1/2=ln(2)/λz.
The area under the plasma concentration time curve from time zero to the last quantifiable concentration (AUC(0,tlast)) was obtained using the linear trapezoidal method and extrapolated to infinity to obtain the total area, AUC(0,∞), with Clast/λz, where Clast is the last quantifiable plasma concentration.

[2] = Clinical assessment of local tolerability and safety in the crossover study; type: in vivo, human
Description: To assess the local tolerability profile of the SL formulation, modified Likert scales (0-10) were recorded at 5, 10, 15, 30 and 45 min and 1 h post-dose administration at various time points for both the SL and i.v. formulation: • Mucosal irritation • Burning sensation • Bitterness • Nausea • Residual grittiness in the mouth
Safety assessments included scheduled adverse event probes, spontaneous adverse event (AE) reporting, physical examination, routine laboratory investigations, ECGs and vital sign evaluation.
Vital signs (including systolic and diastolic blood pres-sure, pulse, respiratory rate and body temperature) were performed predose and at hours 0.5, 1, 2, 4, 6, 8, 12 and 24 h post-dose. Pulse oximetry was recorded predose and continuously for the first 3 h post-dose administration

[3] = system: treatment-resistant major depressed patients; details: cited from earlier work
[4] = cited from earlier work
[5] = sublingually administered ketamine; cited from earlier work
[6] = system: mouse tests of antidepressant efficacy; details: up to a 30-fold range of doses, multiple mouse tests; cited from earlier work
NMDA receptors = details: cited from earlier work
[7] = individual subjects, 10 mg as 30 min i.v. infusion
[8] = individual subjects, 25 mg sublingually as a wafer
[9] = both routes (10 mg i.v., 25 mg SL)
[10] = i.v. infusion, treatment-resistant major depressed patients

CNC1(c2ccccc2Cl)CCCCC1=O (racemic) [RS ketamine, ketamine]
Cmax, peak plasma concentration (i.v.) ([1]; Gmean of eight healthy volunteers, 10 mg as 30 min i.v. infusion): 128.1 ng/ml^−1 | Cmax, peak plasma concentration (SL) ([1]; Gmean of eight healthy volunteers, 25 mg sublingually as a wafer): 71.1 ng/ml^−1 | first quantifiable ketamine plasma concentrations observed at ([1]; all participants, both administration routes (i.v. and SL), first post-dose sample): 5 min | AUC(0-inf) ([1]; human, plasma, 25 mg, AUC(0,∞) (SL), individual subjects, 25 mg sublingually as a wafer): 204 ng·h/mL | AUC(0-inf) ([1]; human, plasma, iv, 10 mg, AUC(0,∞) (i.v.), individual subjects, 10 mg as 30 min i.v. infusion): 270 ng·h/mL | clearance ([1]; human, plasma, iv, 10 mg, individual subjects, 10 mg as 30 min i.v. infusion): 997 mL/min | bioavailability ([1]; human, plasma, 25 mg, individual subjects, 25 mg SL wafer vs 10 mg i.v., dose adjusted AUC(0,∞)): 30% | AUC(0,∞) (i.v.) [1, 7]: 289.2 ng·h/mL and 299.4 ng·h/mL and 261.0 ng·h/mL and 167.2 ng·h/mL and 282.7 ng·h/mL and 243.2 ng·h/mL and 254.8 ng·h/mL | CL, clearance following i.v. administration [1, 7]: 37.0 L/h and 34.6 L/h and 33.4 L/h and 36.3 L/h and 35.4 L/h and 41.1 L/h and 39.3 L/h | Vz, apparent volume of distribution following i.v. administration [1, 7]: 253 L and 300 L and 164 L and 385 L and 375 L and 126 L and 158 L and 283 L | Cmax, peak plasma concentration (i.v.) ([1]; individual subjects, 10 mg as 30 min i.v. infusion, healthy volunteers): 124.2 ng/ml^−1 and 120.4 ng/ml^−1 and 101.9 ng/ml^−1 and 83.2 ng/ml^−1 and 81.1 ng/ml^−1 and 226.7 ng/ml^−1 and 166.3 ng/ml^−1 and 160.3 ng/ml^−1 | F, bioavailability ([1]; individual subjects, 25 mg SL wafer vs 10 mg i.v., dose adjusted AUC(0,∞)): 23% and 38% and 28% and 27% | AUC(0,∞) (SL) [1, 8]: 171.9 ng·h/mL and 211.3 ng·h/mL and 166.1 ng·h/mL and 151.6 ng·h/mL and 202.9 ng·h/mL and 162.5 ng·h/mL and 134.3 ng·h/mL | t1/2, terminal half-life (SL) [1, 8]: 5.5 h and 3.5 h and 2.3 h and 4.6 h and 5.1 h and 2.9 h and 1.8 h and 3.2 h | Cmax, peak plasma concentration (SL) ([1]; individual subjects, 25 mg sublingually as a wafer, healthy volunteers): 60.2 ng/ml^−1 and 50.0 ng/ml^−1 and 75.1 ng/ml^−1 and 51.8 ng/ml^−1 and 61.2 ng/ml^−1 and 88.8 ng/ml^−1 and 128.3 ng/ml^−1 and 76.7 ng/ml^−1 | AUC(0-inf) ([1]; male, human, plasma, 25 mg, AUC(0,∞) (SL), Gmean of eight healthy volunteers, 25 mg sublingually as a wafer): 185 ng·h/mL | half-life ([1]; male, human, plasma, 25 mg, t1/2, terminal half-life (SL), 25 mg sublingually as a wafer): 3.4 h | AUC(0-inf) ([1]; male, human, plasma, iv, 10 mg, AUC(0,∞) (i.v.), Gmean of eight healthy volunteers, 10 mg as 30 min i.v. infusion): 255 ng·h/mL | clearance ([1]; male, human, plasma, iv, 10 mg, Gmean of eight healthy volunteers, 10 mg as 30 min i.v. infusion): 653 mL/min | Vd ([1]; male, human, plasma, iv, 10 mg, Vz, apparent volume of distribution following i.v. administration, Gmean of eight healthy volunteers, 10 mg as 30 min i.v. infusion): 237 L | half-life ([1]; male, human, plasma, iv, 10 mg, t1/2, terminal half-life (i.v.), 10 mg as 30 min i.v. infusion): 4.5 h | bioavailability ([1]; male, human, plasma, 25 mg, median (lower, upper 90% CI limit in text) of eight healthy volunteers, 25 mg SL wafer vs 10 mg i.v.): 29% | extrapolated portion of the AUC(0,∞) ([1]; SL dosing): 2-9% | extrapolated portion of the AUC(0,∞) ([1]; i.v. dosing): 3-7% | onset of adverse events ([2]; 10 mg i.v.): 6 to 22 min | onset of adverse events ([2]; 25 mg SL dosing): 5 to 18 min | adverse events terrible taste in mouth, blurred vision, decreased sensation in arm and dizziness, number of each ([2]; SL): one | duration of adverse events [2, 9]: less than 1 h | serious adverse events [2, 9]: no serious adverse events | severity of adverse events [2, 9]: mild | local and systemic tolerability ([2]; both routes of administration): very good | adverse events thought to be related to treatment, number reported ([2]; both routes, eight volunteers): Nineteen | adverse events body feels heavy, dry mouth and visual disturbance, number of each ([2]; i.v.): one | treatment of non-melancholic or anxious depression patients as measured by MADRS ([3]; 6 repeated IV doses 0.5 mg/kg, Wang et al): effectively treated | patients who maintained response for at least 7 days [3, 10]: 35% | time to manifestation of antidepressant effects post-infusion [3, 10]: ≤ 2 h | anti-depressive effects as measured by MADRS ([3]; single IV dose 0.5 mg/kg, Zarate et al): caused anti-depressive effects | efficacy for the treatment of depression, comparison with esketamine ([3]; single dose IV 0.5 mg/kg, Bahji et al meta-analysis): more efficacious than intransal esketamine | duration of action as an anaesthetic ([4]; depending on dose): approximately 30 minutes | terminal half-life ([4]; racemic drug): approximately 3 hours | bioavailability values reported in the literature [5]: 24-32.2%

CN[C@@]1(c2ccccc2Cl)CCCCC1=O [(R)-ketamine]
antidepressant efficacy compared with (S)-ketamine [6]: superior to (S)-ketamine

CN[C@]1(c2ccccc2Cl)CCCCC1=O [S enantiomer, (S)-ketamine]
potency relative to R enantiomer (times more potent) (NMDA receptors; in humans in vivo): approximately 3 times

NC1(c2ccccc2Cl)CCCCC1=O (centres unmarked) [norketamine]
potency as NMDA antagonists relative to parent molecules (times less) (NMDA receptors): 5-8 times
